Bounds are passed on as bounds.

The target of the assay is T1, muscarinic M1 receptor (Homo sapiens, UniProt P11229).
T1 construct: expressed in transfected cells; host or cells: CHO (M1-CHO cells)
T1 sequence (P11229 1-460): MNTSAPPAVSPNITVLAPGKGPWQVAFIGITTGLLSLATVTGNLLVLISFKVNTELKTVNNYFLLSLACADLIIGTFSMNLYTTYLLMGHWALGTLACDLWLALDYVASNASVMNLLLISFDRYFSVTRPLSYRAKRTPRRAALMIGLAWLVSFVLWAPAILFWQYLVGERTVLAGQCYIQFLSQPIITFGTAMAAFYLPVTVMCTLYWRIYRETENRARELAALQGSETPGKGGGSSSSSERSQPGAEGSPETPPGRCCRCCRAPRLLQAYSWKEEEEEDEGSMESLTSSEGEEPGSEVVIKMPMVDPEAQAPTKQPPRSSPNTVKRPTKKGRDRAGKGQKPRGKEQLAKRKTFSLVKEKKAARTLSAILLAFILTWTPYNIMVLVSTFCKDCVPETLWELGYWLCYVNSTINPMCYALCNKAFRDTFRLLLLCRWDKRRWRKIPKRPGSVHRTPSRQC
Briefly: M1 PAM Assay (IP-One HTRF, IP1 in M1-CHO cells with EC20 of acetylcholine). The format is cell-based. To be noted: 1 hour at room temperature, IP1 readout. The procedure: M1-CHO cells are plated in culture medium (HAM's F12, P/S, 10% FCS) on the day before the experiment with 10 000 cells/well in a 384 well plate (3750 Corning White 384 w plate with lid). On the day of experiment, cells are washed with PBS and IPone buffer is added (glucose 5.5 mM, NaCl 146 mM, MgCl2 0.5 mM, HEPES 10 mM, LiCl 50 mM, CaCl2 1 mM, KCl 4.2 mM). Then diluted compounds (1% DMSO final concentration) are added together with EC20 of acetylcholine and incubated with the cells for 1 hour at room temperature. The intracellular concentration of IP1 is then measured using the IP-One HTRF assay from Cisbio.
A general note: Time-resolved FRET reads energy transfer from a long-lived donor to a nearby acceptor.
Turning to `Cc1nc2c3c(nn2c(C)c1C)CN(C(=O)c1ccccc1OC(C)C)C3` [Example 26, (2-isopropoxy-phenyl)-(5,6,7-trimethyl-1H,3H-2,4,7a,8-tetraaza-cyclopenta[a]inden-2-yl)-methanone], the EC50 fell in the range of 200 to 1000 nM.

Regarding `Cc1cnc2c3c(nn2c1)CN(C(=O)c1ccccc1OCCN(C)C)C3` [Example 47, [2-(2-dimethylamino-ethoxy)-phenyl]-(6-methyl-1H,3H-2,4,7a,8-tetraaza-cyclopenta[a]inden-2-yl)-methanone], the EC50 lay within 1000 to 2000 nM.

On to `CCNc1ccccc1C(=O)N1Cc2nn3c(C)c(C)c(C)nc3c2C1` [Example 37, (2-ethylamino-phenyl)-(5,6,7-trimethyl-1H,3H-2,4,7a,8-tetraaza-cyclopenta[a]inden-2-yl)-methanone], for which the EC50 lay within 1000 to 2000 nM.

The molecule `Cc1nc2c3c(nn2c(C)c1C)CN(C(=O)c1ccccc1OC1CCN(C)CC1)C3` [Example 4, [2-(1-methyl-piperidin-4-yloxy)-phenyl]-(5,6,7-trimethyl-1H,3H-2,4,7a,8-tetraaza-cyclopenta[a]inden-2-yl)-methanone] returned an EC50 of 200 to 1000 nM.

For `CC(=O)Oc1ccccc1C(=O)N1Cc2nn3c(C)c(C)c(C)nc3c2C1` [Example 23, acetic acid 2-(5,6,7-trimethyl-1H,3H-2,4,7a,8-tetraaza-cyclopenta[a]indene-2-carbonyl)-phenyl ester], the half-maximal effective concentration (EC50) lay in the range of 200 to 1000 nM.

On to `CCOc1ccccc1C(=O)N1Cc2nn3c(C)c(C)c(C)nc3c2C1` [Example 12, (2-ethoxy-phenyl)-(5,6,7-trimethyl-1H,3H-2,4,7a,8-tetraaza-cyclopenta[a]inden-2-yl)-methanone], for which the half-maximal effective concentration (EC50) lay in the range of 200 to 1000 nM.

Molecule `CCCCOc1ccccc1C(=O)N1Cc2nn3c(C)c(C)c(C)nc3c2C1` [Example 21, (2-butoxy-phenyl)-(5,6,7-trimethyl-1H,3H-2,4,7a,8-tetraaza-cyclopenta[a]inden-2-yl)-methanone] came in with an EC50 of 200 to 1000 nM.

Regarding `Cc1nc2c3c(nn2c(C)c1Cl)CN(C(=O)c1ccccc1OC1CCNCC1)C3` [Example 3, (6-chloro-5,7-dimethyl-1H,3H-2,4,7a,8-tetraaza-cyclopenta[a]inden-2-yl)-[2-(piperidin-4-yloxy)-phenyl]-methanone], the EC50 was below 200 nM.

`Cc1nc2c3c(nn2c(C)c1C)CN(C(=O)c1ccccc1OCCC1CCCCC1)C3` [Example 40, [2-(2-cyclohexyl-ethoxy)-phenyl]-(5,6,7-trimethyl-1H,3H-2,4,7a,8-tetraaza-cyclopenta[a]inden-2-yl)-methanone] showed an EC50 of 1000 to 2000 nM.

Consider `Cc1cnc2c3c(nn2c1C)CN(C(=O)c1ccccc1N1CCCN(C)CC1)C3` [Example 41, (6,7-dimethyl-1H,3H-2,4,7a,8-tetraaza-cyclopenta[a]inden-2-yl)-[2-(4-methyl-[1,4]diazepan-1-yl)-phenyl]-methanone], for which the EC50 was 1000 to 2000 nM.

Consider `Cc1nc2c3c(nn2c(C)c1Cl)CN(C(=O)c1ccccc1OC(C)C)C3` [Example 9, (6-chloro-5,7-dimethyl-1H,3H-2,4,7a,8-tetraaza-cyclopenta[a]inden-2-yl)-(2-isopropoxy-phenyl)-methanone], for which the 50% effective concentration (EC50) lay in the range of 200 to 1000 nM.

`Cc1nc2c3c(nn2c(C)c1Cl)CN(C(=O)c1ccccc1OC1CCN(C)CC1)C3` [Example 1, (6-chloro-5,7-dimethyl-1H,3H-2,4,7a,8-tetraaza-cyclopenta[a]inden-2-yl)-[2-(1-methyl-piperidin-4-yloxy)-phenyl]-methanone] returned an EC50 below 200 nM.

`Cc1nc2c3c(nn2c(C)c1Cl)CN(C(=O)c1ccccc1N1CCCC1)C3` [Example 7, (6-chloro-5,7-dimethyl-1H,3H-2,4,7a,8-tetraaza-cyclopenta[a]inden-2-yl)-(2-pyrrolidin-1-yl-phenyl)-methanone] gave an EC50 of 200 to 1000 nM.

With `Cc1nc2c3c(nn2c(C)c1C)CN(C(=O)c1ccccc1-n1cccn1)C3` [Example 39, (2-pyrazol-1-yl-phenyl)-(5,6,7-trimethyl-1H,3H-2,4,7a,8-tetraaza-cyclopenta[a]inden-2-yl)-methanone], the EC50 was in the range of 1000 to 2000 nM.

`Cc1nc2c3c(nn2c(C)c1C)CN(C(=O)c1ccccc1N1CCCN(C)CC1)C3` [Example 19, [2-(4-methyl-[1,4]diazepan-1-yl)-phenyl]-(5,6,7-trimethyl-1H,3H-2,4,7a,8-tetraaza-cyclopenta[a]inden-2-yl)-methanone] gave a 50% effective concentration (EC50) of 200 to 1000 nM.

In the case of `Cc1nc2c3c(nn2c(C)c1C)CN(C(=O)c1ccccc1C(F)(F)F)C3` [Example 43, (2-trifluoromethyl-phenyl)-(5,6,7-trimethyl-1H,3H-2,4,7a,8-tetraaza-cyclopenta[a]inden-2-yl)-methanone], the concentration giving a half-maximal response (EC50) was 1000 to 2000 nM.

On to `Cc1cn2nc3c(c2nc1C)CN(C(=O)c1ccccc1OCCN(C)C)C3` [Example 32, [2-(2-dimethylamino-ethoxy)-phenyl]-(5,6-dimethyl-1H,3H-2,4,7a,8-tetraaza-cyclopenta[a]inden-2-yl)-methanone], for which the concentration for a half-maximal effect (EC50) lay in the range of 1000 to 2000 nM.

For the molecule `CCOc1ccc(Cl)cc1C(=O)N1Cc2nn3c(C)c(C)c(C)nc3c2C1` [Example 34, (5-chloro-2-ethoxy-phenyl)-(5,6,7-trimethyl-1H,3H-2,4,7a,8-tetraaza-cyclopenta[a]inden-2-yl)-methanone], the EC50 was in the range of 1000 to 2000 nM.

For the molecule `Cc1nc2c3c(nn2c(C)c1C)CN(C(=O)c1ccccc1Br)C3` [Example 49, (2-bromo-phenyl)-(5,6,7-trimethyl-1H,3H-2,4,7a,8-tetraaza-cyclopenta[a]inden-2-yl)-methanone], the EC50 lay within 1000 to 2000 nM.

For `Cc1cnc2c3c(nn2c1C)CN(C(=O)c1ccccc1OCCN(C)C)C3` [Example 38, [2-(2-dimethylamino-ethoxy)-phenyl]-(6,7-dimethyl-1H,3H-2,4,7a,8-tetraaza-cyclopenta[a]inden-2-yl)-methanone], the concentration giving a half-maximal response (EC50) fell in the range of 1000 to 2000 nM.

In turn, `CCOc1ccc(F)cc1C(=O)N1Cc2nn3c(C)c(C)c(C)nc3c2C1` [Example 13, (2-ethoxy-5-fluoro-phenyl)-(5,6,7-trimethyl-1H,3H-2,4,7a,8-tetraaza-cyclopenta[a]inden-2-yl)-methanone] came in with an EC50 of 200 to 1000 nM.

In the case of `Cc1cn2nc3c(c2nc1C)CN(C(=O)c1ccccc1N1CCCN(C)CC1)C3` [Example 33, (5,6-dimethyl-1H,3H-2,4,7a,8-tetraaza-cyclopenta[a]inden-2-yl)-[2-(4-methyl-[1,4]diazepan-1-yl)-phenyl]-methanone], the EC50 is 1000 to 2000 nM.

In turn, `CCOc1ccccc1C(=O)N1Cc2nn3cc(Cl)cnc3c2C1` [Example 46, (6-chloro-1H,3H-2,4,7a,8-tetraaza-cyclopenta[a]inden-2-yl)-(2-ethoxy-phenyl)-methanone] gave an EC50 of 1000 to 2000 nM.

In turn, `Cc1nc2c3c(nn2c(C)c1C)CN(C(=O)c1ccccc1OC(F)(F)F)C3` [Example 17, (2-trifluoromethoxy-phenyl)-(5,6,7-trimethyl-1H,3H-2,4,7a,8-tetraaza-cyclopenta[a]inden-2-yl)-methanone] yielded an EC50 of 200 to 1000 nM.

For the molecule `CCOc1cc(F)ccc1C(=O)N1Cc2nn3c(C)c(Cl)c(C)nc3c2C1` [Example 5, (6-chloro-5,7-dimethyl-1H,3H-2,4,7a,8-tetraaza-cyclopenta[a]inden-2-yl)-(2-ethoxy-4-fluoro-phenyl)-methanone], the EC50 was in the range of 200 to 1000 nM.

For `Cc1nc2c3c(nn2c(C)c1C)CN(C(=O)c1ccccc1OCc1ccccc1)C3` [Example 29, (2-benzyloxy-phenyl)-(5,6,7-trimethyl-1H,3H-2,4,7a,8-tetraaza-cyclopenta[a]inden-2-yl)-methanone], the concentration for a half-maximal effect (EC50) lay in the range of 1000 to 2000 nM.

`Cc1nc2c3c(nn2c(C)c1C)CN(C(=O)c1ccccc1N1CCN(C)CC1)C3` [Example 36, [2-(4-methyl-piperazin-1-yl)-phenyl]-(5,6,7-trimethyl-1H,3H-2,4,7a,8-tetraaza-cyclopenta[a]inden-2-yl)-methanone]: the half-maximal effective concentration (EC50) is 1000 to 2000 nM.

Molecule `Cc1nc2c3c(nn2c(C)c1Cl)CN(C(=O)c1ccccc1N1CCCN(C)CC1)C3` [Example 6, (6-chloro-5,7-dimethyl-1H,3H-2,4,7a,8-tetraaza-cyclopenta[a]inden-2-yl)-[2-(4-methyl-[1,4]diazepan-1-yl)-phenyl]-methanone] yielded a 50% effective concentration (EC50) of 200 to 1000 nM.

`Cc1nc2c3c(nn2c(C)c1Cl)CN(C(=O)c1ccccc1OC1CCOCC1)C3` [Example 35, (6-chloro-5,7-dimethyl-1H,3H-2,4,7a,8-tetraaza-cyclopenta[a]inden-2-yl)-[2-(tetrahydro-pyran-4-yloxy)-phenyl]-methanone] came in with a half-maximal effective concentration (EC50) of 1000 to 2000 nM.

The molecule `CCOc1ccccc1C(=O)N1Cc2nn3cc(C)c(C)nc3c2C1` [Example 31, (5,6-Dimethyl-1H,3H-2,4,7a,8-tetraaza-cyclopenta[a]inden-2-yl)-(2-ethoxy-phenyl)-methanone] yielded an EC50 of 1000 to 2000 nM.

For the molecule `COC(=O)c1ccccc1C(=O)N1Cc2nn3c(C)c(C)c(C)nc3c2C1` [Example 44, 2-(5,6,7-trimethyl-1H,3H-2,4,7a,8-tetraaza-cyclopenta[a]indene-2-carbonyl)-benzoic acid methyl ester], the concentration giving a half-maximal response (EC50) was 1000 to 2000 nM.

Broadly, the EC50 is the concentration needed to bring the measured effect to its halfway point. Read a low EC50 as a more potent agent.

The record behind these values is patent publication US9403835B2, “Tetraaza-cyclopenta[a]indenyl and their use as positive allosteric modulators” (Merck Patent GmbH, priority 2011, dated 2016).
